Patent EP4692079A1, “CYP11A1 INHIBITOR AND USE THEREOF” (priority 2023, dated 2024)
Where two headings read alike, the source gives them in different places.

Tests used:
[1] = Pharmacokinetic test in mice; assay type: in vivo; conditions: mouse, male ICR mice, plasma; for Vd: read-out: Vdss
Protocol: 4.1. Experimental animals: Male ICR mice, 20-25 g, 6 mice/compound, were purchased from Chengdu Dossy Experimental Animals Co., Ltd.
4.2 Experimental design: on the day of the experiment, the ICR mice were randomly grouped according to their body weights. […] Table 6 Administration information
Before and after administration, 0.06 mL of blood was taken from the orbit under isoflurane anaesthesia and placed in an EDTAK2 centrifuge tube. The tube was centrifuged at 5000 rpm at 4°C for 10 min, and plasma was collected. […] Before analysis and detection, all samples were stored at -80°C, and the samples were quantitatively analysed by LC-MS/MS.

[2] = Pharmacokinetic test in rats; assay type: in vivo; conditions: rat, male SD rats, plasma; for Vd: read-out: Vdss
Protocol: 3.1 Experimental animals: Male SD rats (about 220 g, 6-8 weeks old, 6 rats/compound) were purchased from Chengdu Dossy Experimental Animals Co., Ltd.
3.2 Experimental design: On the day of the experiment, the SD rats were randomly grouped by body weight. […] Table 4 Administration information
Before and after the administration, 0.1 ml of blood was taken from the orbit of the animals under isoflurane anaesthesia and placed in an EDTAK2 centrifuge tube. The blood was centrifuged at 5000 rpm and 4°C for 10 min to collect plasma. […] Before analysis and detection, all samples were stored at -80°C. Table 5 Pharmacokinetic parameters of test compounds in plasma of rats

[3] = system: pregnenolone level in NCI-H295R cells; assay: cells; assay type: cell-based; conditions: Homo sapiens, 72 h; for IC50: read-out: Pregnenolone level in H295R (Elisa) IC50 nM; for inhibition at 0.1 µM: read-out: Pregnenolone level in H295R (Elisa) inh.% 100 nM; for inhibition at 1 µM: read-out: Pregnenolone level in H295R (Elisa) inh.% 1000 nM
Protocol: 2. The purpose of the experimental study was intended to detect the pregnenolone level in the NCI-H295R cells by adopting the Enzyme linked immunosorbent assay (ELISA), so as to evaluate the inhibitory effects of the compounds on the pregnenolone level in the NCI-H295R cells.
The H295R cells were purchased from ATCC (CRL-2128), the cell complete medium contained DMEM: F12+ 10% FBS +0.00625 mg/ml insulin+0.00625 mg/mL transferrin+6.25 ng/mL selenium+1.25 mg/mL BSA+0.00535 mg/mL linoleic acid, and the cells were cultured in a 37°C, 5% CO2 incubator. The cells in the exponential growth phase were collected, and cultured in a cytokine-free medium (phenol red 1640-free +1% PS+10% css FBS+1.25 mg/mL BSA +0.00625 mg/mL insulin+0.00625 mg/mL transferrin+6.25 ng/mL selenium+0.00535 mg/mL linoleic acid) for three days. The cells in the exponential growth phase were collected on the third day. The cell suspension was adjusted with a cytokine-free medium to a corresponding concentration and plated at 60000 cells/well, with the volume being 90 µL/well. Subsequently, 10 µL of the compounds at different concentrations was added and the plate was incubated in a CO2 incubator for three days. After the incubation was completed, the cell culture supernatant was collected and centrifuged at 2°C-8°C at 800×g for 10 min. The resulting supernatant was collected. Determination was carried out according to the operation instructions for pregnenolone Elisa kit (Antibodies-A73791), and the OD450 signal was read.
2.1 Standard curve plotting. The standard concentration was taken as the abscissa and the OD450 value as the ordinate, the coordinate points of various standards were connected with a smooth line and a curve was fitted according to the four parameter logistic (4-PL) method.
2.2 Sample quantification: The corresponding concentration (CONC) of testosterone/pregnenolone in the sample was calculated using the absorbance value of the sample and the standard curve. According to formula (1), the inhibition rate of the compound at various concentrations was calculated, and S-shaped concentration curves were plotted and the IC50 values (i.e., concentration of the compound at which the inhibition rate was 50%) were calculated using a three parameter non-linear regression model in Graphpad Prim 8.0 software. CONC cpd was the concentration of the treated group, and CONC ctrl was the average concentration value of the solvent control group. Inhibition rate% = 100%−CONCcpd /CONCctrl × 100% [formula] Table 3 Inhibitory effects of compounds on pregnenolone level in NCI-H295R cells

[4] = system: testosterone level in NCI-H295R cells; assay: cells; assay type: cell-based; conditions: Homo sapiens, NCI-H295R, 72 h; for IC50: read-out: Testosterone level in H295R (Elisa) IC50 nM
Protocol: The purpose of the experimental study was intended to detect the testosterone level in the NCI-H295R cells by adopting the Enzyme linked immunosorbent assay (ELISA), so as to evaluate the inhibitory effects of the compounds on the testosterone level in the NCI-H295R cells.
The H295R cells were purchased from ATCC, the cell complete medium contained DMEM: F12+ 10% FBS +0.00625 mg/ml insulin +0.00625 mg/ml transferrin+6.25 ng/ml selenium +1.25 mg/ml BSA+0.00535 mg/ml linoleic acid, and the cells were cultured in a 37°C, 5% CO2 incubator. The cells in the exponential growth phase were collected, and cultured in a cytokine-free medium (phenol red 1640-free +1% PS+10% css FBS+1.25 mg/ml BSA +0.00625 mg/ml insulin + 0.00625 mg/ml transferrin+6.25 ng/ml selenium+0.00535 mg/ml linoleic acid) for three days. The cells in the exponential growth phase were collected on the third day. The cell suspension was adjusted with a cytokine-free medium to a corresponding concentration and plated at 60000 cells/well, with the volume being 90 µL/well. Subsequently, 10 µL of the compounds at different concentrations was added and the plate was incubated in a CO2 incubator for three days. After the incubation was completed, according to the operation instructions for testosterone Elisa kit (Beyotime, PT872), 50 µL of the cell culture supernatant was collected from each well and centrifuged at 500 g for 5 min at room temperature and then the resulting supernatant was collected. The samples were added to the corresponding wells at 25 µl/well, and then formulated horseradish peroxidase labelled testosterone was added at 75 µl/well. The mixture was fully mixed for 10 seconds. The reaction wells were sealed with a plate-sealing film (white) and the mixture was incubated at room temperature in the dark for 120 min. The plate was washed three times with a volume of 300 µl per well, and then placed onto thick absorbent paper and dried. Chromogenic reagent TMB solution was added at 100 µl/well. The reaction wells were sealed with a plate-sealing film (white) and the mixture was incubated at room temperature in the dark for 15-20 min. Subsequently, a termination solution was added at 50 µl/well, and after the mixture was fully mixed, the absorbance value OD450 was immediately measured. The absorbance readings were processed using Graphpad Prim 8.0 software and S-shaped concentration curves were plotted and the IC50 values were calculated using a four-parameter non-linear regression model.

[5] = po, intragastric administration (10 mg/kg)
[6] = intravenous administration (2.5 mg/kg)
[7] = read-out: Testosterone level in H295R (Elisa) inh.% 100 nM
[8] = read-out: Testosterone level in H295R (Elisa) inh.% 1000 nM

[2H]C([2H])([2H])n1cc(C(=O)N[C@H]2CC[C@H](/C=C/c3coc(CN4Cc5ccc(C(F)(F)F)cc5C4)cc3=O)CC2)cn1 [Compound 81]
AUC(0-t) [1, 5]: 68500 ng·h/mL
half-life [1, 5]: 5.38 h
AUC(0-t) [1, 6]: 22600 ng·h/mL
clearance [1, 6]: 1.69 mL/min/kg
half-life [1, 6]: 6.99 h
Vd [1, 6]: 0.86 L/kg
AUC(0-t) [2, 5]: 40500 ng·h/mL
half-life [2, 5]: 4.29 h
AUC(0-t) [2, 6]: 12900 ng·h/mL
clearance [2, 6]: 3.22 mL/min/kg
half-life [2, 6]: 3.18 h
Vd [2, 6]: 0.704 L/kg
IC50 [3]: 146 nM
IC50 [4]: 102 nM
inhibition at 0.1 µM [4, 7]: 63%
inhibition at 1 µM [4, 8]: 83%

CS(=O)(=O)N1CC(OC(=O)N2CCC(COc3coc(CN4Cc5ccc(C(F)(F)F)cc5C4)cc3=O)CC2)C1 [Compound 17]
AUC(0-t) [1, 5]: 17800 ng·h/mL
half-life [1, 5]: 2.42 h
AUC(0-t) [1, 6]: 4790 ng·h/mL
clearance [1, 6]: 8.73 mL/min/kg
half-life [1, 6]: 2.96 h
Vd [1, 6]: 1.81 L/kg
AUC(0-t) [2, 5]: 5240 ng·h/mL
half-life [2, 5]: 2.72 h
AUC(0-t) [2, 6]: 1680 ng·h/mL
clearance [2, 6]: 24.4 mL/min/kg
half-life [2, 6]: 1.59 h
Vd [2, 6]: 2.53 L/kg
IC50 [3]: 773 nM
inhibition at 0.1 µM [3]: 64.9%
inhibition at 1 µM [3]: 75.2%
inhibition at 0.1 µM ([4]; read-out: Testosterone level in H295R (Elisa) inh.% 100 nM, 100 nM compound, NCI-H295R cells, three days incubation): 91.6%
inhibition at 1 µM ([4]; read-out: Testosterone level in H295R (Elisa) inh.% 1000 nM, 1000 nM compound, NCI-H295R cells, three days incubation): 93.6%

[2H]C([2H])([2H])n1cc(C(=O)N[C@H]2CC[C@H](CCc3coc(CN4Cc5ccc(C(F)(F)F)cc5C4)cc3=O)CC2)cn1 [Compound 118]
AUC(0-t) [1, 5]: 28000 ng·h/mL
half-life [1, 5]: 3.45 h
AUC(0-t) [1, 6]: 7980 ng·h/mL
clearance [1, 6]: 5.22 mL/min/kg
half-life [1, 6]: 2.78 h
Vd [1, 6]: 0.966 L/kg
AUC(0-t) [2, 5]: 11400 ng·h/mL
half-life [2, 5]: 4.41 h
AUC(0-t) [2, 6]: 5200 ng·h/mL
clearance [2, 6]: 8.18 mL/min/kg
half-life [2, 6]: 1.58 h
Vd [2, 6]: 0.755 L/kg
IC50 [3]: 71 nM
IC50 [4]: 36 nM
inhibition at 0.1 µM [4, 7]: 70%
inhibition at 1 µM [4, 8]: 83%

O=C(N[C@H]1CC[C@H](/C=C/c2coc(CN3Cc4ccc(C(F)(F)F)cc4C3)cc2=O)CC1)C1CC1 [Compound 61]
AUC(0-t) [1, 5]: 32100 ng·h/mL
half-life [1, 5]: 3.47 h
AUC(0-t) [1, 6]: 6080 ng·h/mL
clearance [1, 6]: 6.8 mL/min/kg
half-life [1, 6]: 3.73 h
Vd [1, 6]: 1.75 L/kg
AUC(0-t) [2, 5]: 17400 ng·h/mL
half-life [2, 5]: 3.03 h
AUC(0-t) [2, 6]: 5590 ng·h/mL
clearance [2, 6]: 7.49 mL/min/kg
half-life [2, 6]: 2.58 h
Vd [2, 6]: 1.42 L/kg
IC50 [3]: 370 nM
IC50 [4]: 162 nM
inhibition at 0.1 µM [4, 7]: 71%
inhibition at 1 µM [4, 8]: 79%

O=C(N[C@H]1CC[C@H](/C=C/c2coc(CN3Cc4ccc(C(F)(F)F)cc4C3)cc2=O)CC1)C1CC(F)(F)C1 [Compound 88]
AUC(0-t) [1, 5]: 23600 ng·h/mL
half-life [1, 5]: 4.48 h
AUC(0-t) [1, 6]: 8550 ng·h/mL
clearance [1, 6]: 4.82 mL/min/kg
half-life [1, 6]: 4.49 h
Vd [1, 6]: 1.54 L/kg
IC50 [3]: 94 nM
inhibition at 0.1 µM [3]: 41.6%
inhibition at 1 µM [3]: 64.5%
IC50 [4]: 59 nM
inhibition at 0.1 µM [4, 7]: 76%
inhibition at 1 µM [4, 8]: 86%

O=C(N[C@H]1CC[C@H](/C=C/c2coc(CN3Cc4ccc(C(F)(F)F)cc4C3)cc2=O)CC1)[C@@H]1CC1(F)F [Compound 89]
AUC(0-t) [1, 5]: 52500 ng·h/mL
half-life [1, 5]: 8.11 h
AUC(0-t) [1, 6]: 8460 ng·h/mL
clearance [1, 6]: 4.9 mL/min/kg
half-life [1, 6]: 5.1 h
Vd [1, 6]: 1.63 L/kg
inhibition at 0.1 µM [3]: 41.6%
inhibition at 1 µM [3]: 64.9%
inhibition at 0.1 µM [4, 7]: 75%
inhibition at 1 µM [4, 8]: 87%
